Test system: virus
Test: Virus inactivation by BCTP components
Conditions: concentrations equivalent to 11% BCTP
Description: Individual components of nanoemulsions (e.g. in an immunogenic composition of the present invention) can function both to inactivate a pathogen as well as to contribute to the non-toxicity of the emulsions. […] Adding the oil phase to the detergent and solvent markedly reduces the toxicity of these agents in tissue culture at the same concentrations. […] Furthermore, when all the components of BCTP are combined in one composition but are not in a nanoemulsion structure, the mixture is not as effective at inactivating a pathogen as when the components are in a nanoemulsion structure.

TRITON-X100
ability to inactivate a virus: less ability
